For this assay, the system named is hES cells. The experiment in a line: Induction of motor neurons from hES cell-derived embryoid bodies, quantified by immunocytochemistry. The assay is classed as cell-based, human. To be noted: H1 hES-derived EBs, RA 10 uM. The text has this:
A modified version of the protocol described in Wichterle et al., “Directed Differentiation of Embryonic Stem Cells into Motor Neurons,” Cell 110:385-397 (2002), which is hereby incorporated by reference in its entirety, was used for induction and differentiation of motor neurons from hES cells (FIG. 1A). For caudalization and specification to motor neurons, 90% confluent hES cell cultures were dissociated to form embryoid bodies (EB) in suspension dishes (Ultra low cluster 6 well plates, […], Mass.). Fresh RA was added every day and fresh medium along with SHH replaced every 72 hrs. After 6-8 days, differentiation of motor neurons was induced by plating the spheres formed onto poly-ornithin/fibronectin coated plates in DMEM/F12 supplemented with N2 (Gibco), GDNF (20 ng/ml), BDNF (20 ng/ml), or neurotrophin 4 (NT4) (20 ng/ml), CNTF (20 ng/ml), B27 (1X) and 2% FBS. After 7-14 days, cultures were either fixed for immunocytochemistry or used for physiology.
Cells were stained at different stages of culture for the following: Tra 1-81 (Mouse IgG, 1:200), SSEA-4 (supernatant, mouse IgG, 1:50, DSHB), βIII-tubulin (mouse IgG; 1:400, Covance), Islet1 (supernatant, mouse IgG, 1:50, Developmental Studies Hybridoma Bank from the University of Iowa (DSHB)), Hb9 (supernatant, mouse IgG, 1:50, DSH), ChAT (Rabbit IgG, 1:200, Chemicon), desmin (Rabbit IgG, 1:200, Sigma), and GFP (mouse IgG, 1:100). […]
To determine if hES cells had the capacity to respond to the caudalizing effects of RA and the ventralizing effects of SHH to generate MNs (Wichterle et al., “Directed Differentiation of Embryonic Stem Cells into Motor Neurons,” Cell 110:385-397 (2002), which is hereby incorporated by reference in its entirety), hES cells were raised to 90% confluency before inducing them to form EBs in suspension cultures. […] After a week in a differentiated condition, the cells were fixed and the percentage of βIII-tubulin expressing neurons was determined. […]

With `CC1=C(/C=C/C(C)=C/C=C/C(C)=C/C(=O)O)C(C)(C)CCC1` [RA+/SHH−, all-trans retinoic acid], the “percentage of neurons (βIII-tubulin expressing) generated from the differentiated EBs” value (8-9 days in suspension, one week differentiation with FBS/B27/BDNF/GDNF/CNTF, of total population) is “around 30%”. Moreover, the “percentage of βIII-tubulin expressing neurons that expressed islet-1/ChAT” value (SHH 200 nM where present, FIG. 2E) is 3%-10%. Also, the “percentage of βIII-tubulin expressing neurons that expressed Hb9” value (SHH 200 nM where present, FIG. 2F) is listed as 3%-6%.
